Laboratory results from article PMC4624270 (Journal of the American Chemical Society, 2015).

Target: PikDH2 (PikKR2-DH2 didomain) (Streptomyces venezuelae, UniProt Q9ZGI5)
Assay: time-dependent inactivation, Kitz-Wilson plot
Type: biochemical
Conditions: read-out: KI; covalent; mechanism-based irreversible inhibitor; substrate 2a; 10 to 40 μM inhibitor

Chain of PikDH2 (PikKR2-DH2 didomain) (Q9ZGI5 3579-4365): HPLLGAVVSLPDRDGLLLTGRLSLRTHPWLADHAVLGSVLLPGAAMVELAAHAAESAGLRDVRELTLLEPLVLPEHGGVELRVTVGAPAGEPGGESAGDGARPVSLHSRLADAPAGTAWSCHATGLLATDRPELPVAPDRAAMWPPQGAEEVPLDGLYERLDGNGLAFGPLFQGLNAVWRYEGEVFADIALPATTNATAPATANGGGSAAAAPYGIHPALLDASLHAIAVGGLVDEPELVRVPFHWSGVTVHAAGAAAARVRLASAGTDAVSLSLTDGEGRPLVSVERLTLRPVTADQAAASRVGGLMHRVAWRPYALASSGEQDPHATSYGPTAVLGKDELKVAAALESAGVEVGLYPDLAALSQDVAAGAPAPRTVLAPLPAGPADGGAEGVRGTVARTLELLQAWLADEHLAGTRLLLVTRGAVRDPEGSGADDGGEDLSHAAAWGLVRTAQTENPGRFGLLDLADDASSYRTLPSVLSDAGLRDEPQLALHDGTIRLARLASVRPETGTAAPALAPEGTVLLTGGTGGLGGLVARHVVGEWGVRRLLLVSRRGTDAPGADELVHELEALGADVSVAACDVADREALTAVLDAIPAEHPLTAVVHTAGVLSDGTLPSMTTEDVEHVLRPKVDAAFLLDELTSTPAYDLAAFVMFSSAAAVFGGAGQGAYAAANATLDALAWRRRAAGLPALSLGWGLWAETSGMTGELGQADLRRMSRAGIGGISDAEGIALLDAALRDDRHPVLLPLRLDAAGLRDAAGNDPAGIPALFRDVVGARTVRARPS

CCCCCCC#CCC(=O)SCCNC(C)=O [compound 6, 3-Decynoyl-N-acetylcysteamine]
KI (inactivation): 156 ± 34 µM
